In brackets after ≈: the same amount, converted by molar mass.
Assays:
Type in all cases: functional
[1] = system: Mus musculus; test: Hepatoprotective activity in CD1 Mus musculus (mouse) assessed as reduction of CCl4-induced serum alanine aminotransferase level at 20 mg/kg, po administered 30 min before and 3 hr after CCl4 challenge measured 48 hr post CCl4 challenge (reference value: 296 +/- 7.93 IU/l)
[2] = system: Radical scavenging activity; test: Antioxidant activity assessed as DPPH free radical scavenging activity
[3] = system: Mus musculus; test: Hepatoprotective activity in CD1 Mus musculus (mouse) assessed as reduction of CCl4-induced serum aspartate aminotransferase level at 20 mg/kg, po administered 30 min before and 3 hr after CCl4 challenge measured 48 hr post CCl4 challenge (reference value: 487.3 +/- 6.21 IU/l)
[4] = system: Mus musculus; test: Nephroprotective activity in CD1 Mus musculus (mouse) assessed as reduction of CCl4-induced plasma urea level at 20 mg/kg, po administered 30 min before and 3 hr after CCl4 challenge measured 48 hr post CCl4 challenge (reference value: 61.56 +/- 3.46 mg/dl)
[5] = system: Mus musculus; test: Hepatoprotective activity in CD1 Mus musculus (mouse) assessed as reduction of CCl4-induced total cholesterol level in serum at 20 mg/kg, po administered 30 min before and 3 hr after CCl4 challenge measured 48 hr post CCl4 challenge (reference value: 172.57 +/- 4.36 md/dl)
[6] = system: Mus musculus; test: Hepatoprotective activity in CD1 Mus musculus (mouse) assessed as reduction of CCl4-induced serum alkaline phosphatase level at 20 mg/kg, po administered 30 min before and 3 hr after CCl4 challenge measured 48 hr post CCl4 challenge (reference value: 239.1 +/- 5.98 IU/l)
[7] = Antioxidant activity assessed as inhibition of H2O2/Fe2+-induced radical generation
[8] = Antioxidant activity assessed as superoxide radical scavenging activity
[9] = system: Mus musculus; test: Nephroprotective activity in CD1 Mus musculus (mouse) assessed as reduction of CCl4-induced plasma creatinine level at 20 mg/kg, po administered 30 min before and 3 hr after CCl4 challenge measured 48 hr post CCl4 challenge (reference value: 1.2 +/- 0.006 mg/dl)
[10] = system: Mus musculus; test: Hepatoprotective activity in CD1 Mus musculus (mouse) intoxicated with CCl4 assessed as increase in total protein level in serum at 20 mg/kg, po administered 30 min before and 3 hr after CCl4 challenge measured 48 hr post CCl4 challenge (reference value: 61.80 +/- 5.48 g/l)

SMILES | IC50 [2] [µg/mL] | IC50 [7] [µg/mL] | IC50 [8] [µg/mL] | Activity [1] [IU/L] | Activity [3] [IU/L] | Activity [4] [mg/dL] | Activity [5] [mg/dL] | Activity [6] [IU/L] | Activity [9] [mg/dL] | Activity [10] [g/L]
C[C@H]1O[C@@H](Oc2cc(O)c3c(c2)O[C@H](c2cc(O)c(O)c(O)c2)CC3=O)[C@@H](O)[C@@H](O)[C@@H]1O | 9.3 (≈ 20.6 µM) | 18.2 (≈ 40.4 µM) | 25.8 (≈ 57.3 µM) | 103.4 | 145.7 | 51.1 | 124.34 | 118.1 | 0.76 | 76.1
COc1ccc([C@@H]2CC(=O)c3c(OC)cc(O[C@@H]4O[C@H](C)[C@@H](O)[C@H](O)[C@@H]4O)cc3O2)cc1O | 21.4 (≈ 46.3 µM) | 32.7 (≈ 70.7 µM) | 39.76 (≈ 86 µM) | 143.6 | 200.6 | 46.62 | 140.13 | 149.6 | 0.69 | 70.24
COc1c(O)cc([C@H]2Oc3cc(O)cc(O)c3C(=O)[C@@H]2O[C@@H]2O[C@H](C)[C@@H](O)[C@H](O)[C@@H]2O[C@@H]2O[C@H](C)[C@@H](O)[C@H](O)[C@@H]2O)cc1O | 17.5 (≈ 27.9 µM) | 22.4 (≈ 35.8 µM) | 30.4 (≈ 48.5 µM) | 115.1 | 161.6 | 49.43 | 129.31 | 128.3 | 0.74 | 74.76
O=c1c(O)c(-c2ccc(O)c(O)c2)oc2cc(O)cc(O)c12 [QUERCETIN] | 8.2 (≈ 27.1 µM) | 14.6 (≈ 48.3 µM) | 20.1 (≈ 66.5 µM) |  |  |  |  |  |  | 

The next lines start with results.

IC50 [2] [µg/mL] | IC50 [7] [µg/mL] | IC50 [8] [µg/mL] | SMILES | Activity [1] [IU/L] | Activity [3] [IU/L] | Activity [4] [mg/dL] | Activity [5] [mg/dL] | Activity [6] [IU/L] | Activity [9] [mg/dL] | Activity [10] [g/L]
24.8 (≈ 38 µM) | 36.42 (≈ 55.8 µM) | 43.12 (≈ 66.1 µM) | COc1ccc(-c2oc3cc(O[C@@H]4O[C@H](CO)[C@@H](O)[C@H](O[C@@H]5O[C@@H](C)[C@H](O)[C@@H](O)[C@H]5O)[C@H]4O)c(OC)c(O)c3c(=O)c2OC)cc1 | 152.4 | 219.4 | 44.78 | 143.28 | 156.5 | 0.67 | 68.23
11.6 (≈ 23.5 µM) | 26.7 (≈ 54 µM) | 35.2 (≈ 71.2 µM) | COc1cc(O)cc2c1C(=O)[C@H](O[C@@H]1O[C@H](C)[C@@H](O)[C@H](O)[C@@H]1O)[C@@H](c1cc(O)c(OC)c(O)c1)O2 | 124.2 | 189.4 | 47.26 | 136.8 | 137.5 | 0.71 | 71.57
